This is an account of results in patent publication US20140301947A1, “METHODS TO PREDICT BINDING AFFINITY OF TSPO IMAGING AGENTS TO TSPO” (IMPERIAL INNOVATIONS LIMITED, priority 2011, published 2014).

Assay [1] deals with T1, TSPO (Homo sapiens, UniProt P30536, T147A). The assay can be described thus: Competition binding with [3H]PK11195 in human brain (method of J Nucl Med 2011;52:24-32). Conditions: human brain. Further details: from tissue; host or cells: human brain (membrane preparation, by the cited method). The source says:
(§1) Thus, for example, the binding affinity of the compound may be determined in tissue derived from a HAB and in tissue derived from a LAB. An appropriate method may comprise the following steps: • obtain samples from human volunteers of tissue which contains TSPO (for example brain (for example for archive samples) or platelets (for example from blood)).
(§2) In more detail, as an example, a 48 well plate may be used, for example with 8-12 different concentrations of experimental drug for each experiment (be it the radiolabelled drug for saturation studies or the un-radiolabelled drug for competition studies). Concentrations may range from around 0.1 nM, increasing in roughly half logs (ie 0.1 nM, 0.3 nM, 1 nM, 3 nM etc) up to around 10,000 nM. 3-4 wells may be used for each concentration and the average taken to increase the precision around the estimate for each data point. The amount of tissue material required depends on how much TSPO is in the chosen tissue. For brain ˜100 micrograms of protein in each well (500 microlitres) may typically be used, giving a protein concentration of ˜200 micrograms/ml. Similar amounts may be used for platelets. For a tissue with very high TSPO levels (eg adrenal gland) a lot less protein would be needed.

In assay [2] the target is T2, TSPO (Homo sapiens, UniProt P30536). The description is as above. Set-up: from tissue; host or cells: human brain (membrane preparation, by the cited method).
Source text: as §1, §2
Target sequence in this assay (P30536 2-169): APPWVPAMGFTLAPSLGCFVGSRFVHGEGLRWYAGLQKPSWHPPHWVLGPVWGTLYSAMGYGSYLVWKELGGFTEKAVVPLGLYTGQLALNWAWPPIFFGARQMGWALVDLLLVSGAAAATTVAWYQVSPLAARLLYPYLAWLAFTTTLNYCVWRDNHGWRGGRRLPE

In assay [3] the target is T2, TSPO. The description is as above. Set-up: Ki MAB; Vinpocetine Ki, MAB. Conditions: mixed affinity binders, single value, human brain; read-out: Ki MAB.
Source text: as §1, §2

Assay [4] relates to TSPO. The assay is described as above. The following applies: for ratio of specific signal, LAB: LAB set to 1; for LAB/HAB: ratio of Ki LAB to Ki HAB; for ratio of specific signal, HAB / ratio of specific signal, MAB: relative to LAB = 1.
Source text: as §1, §2

Assay [5] concerns TSPO. The assay can be described thus: Autoradiography with [18F]FEPPA on slides previously characterised with [3H]PBR28. Format: binding. Conditions: LAB slide versus HAB and MAB slides. The source says: FIG. 4: Autoradiograhpy (above) with [^18F]FEPPA (structure below). The sample slides in the figure have been previously characterised with [^3H]PBR28 and are all from HABs and MABs, but for the slide second from the left which is a LAB.

In assay [6] the target is T1, TSPO. The assay can be described thus: Competition radioligand binding assay with [3H]PK11195 and unlabelled GE1 in HABs and LABs. Further details: from tissue; host or cells: human brain (membrane preparation, by the cited method). The procedure: (§3) FIG. 6: Competition radioligand binding assay with [3H]
(§4) Binding assays were performed as for the other compounds, as described above. The compound concentrations used were 10000 nM, 3000 nM. 1000 nM, 300 nM, 100 nM. 30 nM, 10 nM, 3 nM, 1 nM, 0.3 nM and 0.03 nM. 6 HABS and 6 LABs were used.

Assay [7] concerns the target T2, TSPO. The description is as above. Further details: from tissue; host or cells: human brain (membrane preparation, by the cited method). Here is the method:
as §3, §4
Target sequence in this assay (P30536 2-169): as above

Assay [8] concerns TSPO. The assay is described as above. Further details: species or system human. The following applies: LAB mean Ki / HAB mean Ki. The procedure:
as §3, §4

The target in assay [9] is T1, TSPO. The assay can be described thus: Competition binding assay, unlabelled PBR28 displacing [3H]PK11195 in human platelet membranes. Set-up: from tissue. Conditions: platelets, mean±SEM. The procedure: (§5) The study protocol, volunteer information and informed consent forms were approved by the local Research Ethics Committee. Forty-one healthy volunteers (29 male, 12 female, mean age 36.3±1.4 years) were recruited. […] Venous blood (50 ml) was drawn into EDTA-containing tubes, and separated into a lymphocyte-rich bottom layer (for genetic analysis) and platelet-rich top layer by centrifugation (180×g, 15 min, 4° C.). The platelet-rich layer (for binding assays) was re-centrifuged (1800×g, 15 min, 4° C.) to produce a platelet-containing pellet. Platelet membranes were prepared as previously described (5).
(§6) Binding data were analysed using GraphPad Prism 5.0. Single site and two site competition models were fitted using the least squares algorithm and model selection was compared using an F-test. The null hypothesis, that the data fitted a single site model, was rejected if the p value was less than 0.05. […] MABs were defined as subjects with two binding sites. Data are expressed as the mean±standard error of the mean (SEM).

Assay [10] deals with T2, TSPO. The description is as above. Set-up: from tissue. The following applies: platelets, mean±SEM. The procedure: as §5, §6
Target sequence in this assay (P30536 2-169): as above
For assay [11], the target named is T1, TSPO. Set-up: from tissue; host or cells: human brain (membrane preparation, by the cited method). Conditions: background, reference (5); read-out: Ki values for HABs; cited from earlier work.
For assay [12], the target named is T2, TSPO. Further details: from tissue; host or cells: human brain (membrane preparation, by the cited method). Conditions: background, reference (5); read-out: Ki values for LABs; cited from earlier work.
Target sequence in this assay (P30536 2-169): as above
Where [13] appears, read: high affinity binders, nM, read-out: Ki HAB.
[14] abbreviates: low affinity binders, human brain, read-out: Ki LAB.
The mark [15] stands for this setting: grouping of ligands into 3 distinct affinities, read-out: affinity for the "Low Affinity receptor".
Where [16] appears, read: mixed affinity binders, two values given, read-out: Ki MAB, first (high affinity) value.
[17] abbreviates: mixed affinity binders, two values given, human brain, read-out: Ki MAB, second (low affinity) value.

Where “and” joins values, the source holds several entries; their conditions need not be identical. Equal values may be shown once. Read-outs that look alike come from different tables or passages of the source.

T1 sequence (P30536 2-169 T147A): as the sequence (P30536 2-169) above, with T146A counted along it

As for `COc1ccc(OC)c(CN(C(C)=O)c2cc(F)ccc2Oc2ccccc2)c1` [DAA1106], on TSPO [1] (setting [13]), the Ki is 2.8 ± 0.3 nM. The Ki on TSPO [2] (setting [14]) was found to be 13.1 ± 1.3 nM. Besides, the Ki on TSPO [3] was found to be 4.8 ± 0.4 nM. For the same compound, in the assay with TSPO [4], the “ratio of specific signal, LAB” value came out at 1; the LAB/HAB stood at 4.7; the “ratio of specific signal, HAB” value is on record as 4.7; the “ratio of specific signal, MAB” value is 2.9.
Take `CCN(Cc1ccccc1)C(=O)Cn1c(=O)n(C)c2cnc(-c3ccccc3)nc21` [Emapunil]: the Ki on TSPO [1] (setting [13]) was 2.4 ± 0.67 nM; at TSPO [2] (setting [15]), under 31 nM; at TSPO [2] (setting [14]), 30.3 ± 8.7 nM; on TSPO [3], 10.5 ± 0.99 nM. For the same compound, the LAB/HAB in the assay with TSPO [4] is recorded as 12.6.
With `CC(=O)N(Cc1ccccc1OCCF)c1cnccc1Oc1ccccc1` [FEPPA], the autoradiography signal entry in the assay on TSPO [5] is “lack of signal for the LAB”.
By IC50 is commonly meant the point on the concentration scale where inhibition reaches its midpoint. Read a high IC50 as a need for much substance. As to `CCN(CC)C(=O)C1CCCC2C1c1c(OC)cccc1N2CCF` (centres unmarked) [GE1], the Ki at TSPO [1] (setting [13]) was 12.3 ± 2.1 nM; at TSPO [2] (setting [14]), 145 ± 22.1 nM; on TSPO [6] (6 HABs, racemate, read-out: Ki, mean of HABs) it was 12.3 nM; at TSPO [6] (individual HAB subjects, read-out: Ki), 3.85 nM and 13.8 nM and 9.12 nM and 12.7 nM and 18.1 nM and 16.5 nM; on TSPO [7] (6 LABs, racemate, read-out: Ki, mean of LABs), 145 nM; at TSPO [7] (individual LAB subjects, read-out: Ki), 87.7 nM and 91.9 nM and 138 nM and 115 nM and 235 nM and 145 nM. In addition, the IC50 at TSPO [6] (individual HAB subjects, 5 nM [3H]PK11195) is 4.51 nM and 16.1 nM and 10.7 nM and 14.9 nM and 21.2 nM and 19.3 nM; on TSPO [7] (individual LAB subjects, 5 nM [3H]PK11195), 103 nM and 108 nM and 162 nM and 135 nM and 276 nM and 170 nM. For the same compound, the Affinity shift in the assay on TSPO [8] was found to be 11.8 fold. In addition, in the assay with TSPO [4], the “ratio of specific signal, LAB” value is listed as 1. In the assay on TSPO [4], the LAB/HAB is reported as 11.8. For the same compound, the “ratio of specific signal, HAB” value in the assay on TSPO [4] is reported as 11.8. Further, the “ratio of specific signal, MAB” value with TSPO [4] was 6.4.
`COc1ccc(OC)c(CN(C(=O)CF)c2ccccc2Oc2ccccc2)c1` [PBR06]: the Ki at TSPO [1] (setting [13]) was found to be 8.6 ± 2 nM. For the same compound, the Ki on TSPO [1] (setting [16]) amounted to 13.4 nM. Moreover, on TSPO [2] (setting [14]), the Ki was 149 ± 46.6 nM. Further, the Ki at TSPO [2] (setting [17]) stood at 176 nM. In the assay on TSPO [4], the “ratio of specific signal, LAB” value amounted to 1; the LAB/HAB amounted to 17; the “ratio of specific signal, HAB” value is 17.3; the “ratio of specific signal, MAB” value stood at 9.2.
For `CC(=O)N(Cc1ccccc1O[11CH3])c1cnccc1Oc1ccccc1` [PBR28], in the assay on TSPO [4], the “ratio of specific signal, LAB” value worked out at 1; the LAB/HAB stood at 55; the “ratio of specific signal, HAB” value is given as 55.3; the “ratio of specific signal, MAB” value was 28.2.
For the compound `COc1ccccc1CN(C(C)=O)c1cnccc1Oc1ccccc1` [PBR28], the Ki is 3.4 ± 0.2 nM at TSPO [1] (setting [13]); 4 nM on TSPO [1] (setting [16]); 188 ± 7 nM on TSPO [2] (setting [14]); 313 nM at TSPO [2] (setting [17]); 2.17 ± 0.17 nM on TSPO [9] (HABs (27/41 subjects), read-out: Ki, single class of high affinity sites); 2.23 ± 0.31 nM on TSPO [9] (MABs (12/41 subjects), read-out: Ki, two-site model, high affinity site). The Ki was 187 ± 19.7 nM on TSPO [10] (LABs (2/41 subjects), read-out: Ki, single class of low affinity sites); 297 ± 43.3 nM on TSPO [10] (MABs (12/41 subjects), read-out: Ki, two-site model, low affinity site); 4 nM on TSPO [11]; 200 nM on TSPO [12].
On to `CCN(CC)C(=O)Cc1c(-c2ccc(OCCCF)cc2)nc2ccc(Cl)cn12` [PBR111], for which the Ki at TSPO [1] (setting [13]) is 15.6 ± 3.7 nM; on TSPO [2] (setting [15]) it was about 60 nM; at TSPO [2] (setting [14]), 61.8 ± 10.7 nM; at TSPO [3] it was 30.3 ± 4.1 nM; at TSPO [11], 16 nM; at TSPO [12], 62 nM. Moreover, the “ratio of specific signal, LAB” value in the assay on TSPO [4] was determined as 1. In addition, the LAB/HAB in the assay with TSPO [4] is 4. The “ratio of specific signal, HAB” value with TSPO [4] came out at 4.0. Also, the “ratio of specific signal, MAB” value in the assay on TSPO [4] is listed as 2.5.
In the case of `CCC(C)N(C)C(=O)c1cc2ccccc2c(-c2ccccc2Cl)n1` (centres unmarked) [PK11195, 1-(2-Chlorophenyl)-N-methyl-N-(1-methylpropyl)-3-isoquinolinecarboxamide], the “difference in binding affinity to Ala147TSPO and Thr147TSPO” value with TSPO [4] (assay as in Owen et al (2011) J Nucl Med 52, 24-32) is on record as “No significant difference in binding affinity has been detected”.
